ChEMBL document CHEMBL4613209, “Quinolone hybrids and their anti-cancer activities: An overview” (Eur J Med Chem, 2019)

Biological target: RAC-alpha serine/threonine-protein kinase (Homo sapiens, UniProt P31749)
Assay: Inhibition of PKBalpha (unknown origin)
Settings: not given

RAC-alpha serine/threonine-protein kinase, sequence (P31749 whole entry): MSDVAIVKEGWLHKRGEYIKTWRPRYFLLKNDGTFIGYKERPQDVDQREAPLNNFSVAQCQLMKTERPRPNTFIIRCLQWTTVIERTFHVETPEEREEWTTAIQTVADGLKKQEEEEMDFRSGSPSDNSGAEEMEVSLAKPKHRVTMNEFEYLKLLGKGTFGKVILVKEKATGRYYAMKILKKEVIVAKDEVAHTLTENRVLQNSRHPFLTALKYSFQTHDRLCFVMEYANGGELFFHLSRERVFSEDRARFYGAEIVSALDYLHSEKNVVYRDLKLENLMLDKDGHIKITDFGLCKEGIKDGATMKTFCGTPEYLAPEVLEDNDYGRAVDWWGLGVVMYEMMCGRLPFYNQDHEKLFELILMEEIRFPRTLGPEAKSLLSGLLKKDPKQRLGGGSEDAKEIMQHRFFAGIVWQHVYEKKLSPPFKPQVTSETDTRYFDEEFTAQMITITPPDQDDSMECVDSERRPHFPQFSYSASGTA

`O=C(/C=C/c1nc2ccccc2[nH]1)c1c(-c2ccccc2)c2ccccc2[nH]c1=O` and `O=C(/C=C/c1nc2cc(Br)ccc2[nH]1)c1c(-c2ccccc2)c2cc(Cl)ccc2[nH]c1=O` fall in the same range of IC50: 1.64 to 44.5 µM for the first, 1.64 to 44.5 µM for the second.

In the case of `O=C(/C=C/c1nc2cc(F)c(F)cc2[nH]1)c1c(-c2ccc(F)c(F)c2)c2cc(F)ccc2[nH]c1=O`, the IC50 is reported as 1.64 to 44.5 µM.

Biological target: RAC-beta serine/threonine-protein kinase (Homo sapiens, UniProt P31751)
Assay: Inhibition of PKBbeta (unknown origin)
Settings: not given

RAC-beta serine/threonine-protein kinase, sequence (P31751 whole entry): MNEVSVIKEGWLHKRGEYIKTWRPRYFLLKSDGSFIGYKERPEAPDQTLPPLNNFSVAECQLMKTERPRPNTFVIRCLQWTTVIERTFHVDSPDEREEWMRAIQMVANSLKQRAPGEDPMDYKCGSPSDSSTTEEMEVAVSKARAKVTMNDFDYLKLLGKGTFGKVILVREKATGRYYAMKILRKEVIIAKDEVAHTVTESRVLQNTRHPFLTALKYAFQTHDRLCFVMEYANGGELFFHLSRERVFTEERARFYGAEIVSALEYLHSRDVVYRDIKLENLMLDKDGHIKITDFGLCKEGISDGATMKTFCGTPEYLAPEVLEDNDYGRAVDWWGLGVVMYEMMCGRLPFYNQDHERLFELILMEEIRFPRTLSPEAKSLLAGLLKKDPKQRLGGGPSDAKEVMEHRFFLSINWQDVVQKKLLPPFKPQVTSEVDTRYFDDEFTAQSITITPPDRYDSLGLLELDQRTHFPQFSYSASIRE

`O=C(/C=C/c1nc2ccccc2[nH]1)c1c(-c2ccccc2)c2ccccc2[nH]c1=O` and `O=C(/C=C/c1nc2cc(Br)ccc2[nH]1)c1c(-c2ccccc2)c2cc(Cl)ccc2[nH]c1=O` fall in the same range of IC50: 1.64 to 44.5 µM for the first, 1.64 to 44.5 µM for the second.

For `O=C(/C=C/c1nc2cc(F)c(F)cc2[nH]1)c1c(-c2ccc(F)c(F)c2)c2cc(F)ccc2[nH]c1=O`, the IC50 was 1.64 to 44.5 µM.

Biological target: RAC-gamma serine/threonine-protein kinase (Homo sapiens, UniProt Q9Y243)
Assay: Inhibition of PKBgamma (unknown origin)
Settings: not given

RAC-gamma serine/threonine-protein kinase, sequence (Q9Y243 whole entry): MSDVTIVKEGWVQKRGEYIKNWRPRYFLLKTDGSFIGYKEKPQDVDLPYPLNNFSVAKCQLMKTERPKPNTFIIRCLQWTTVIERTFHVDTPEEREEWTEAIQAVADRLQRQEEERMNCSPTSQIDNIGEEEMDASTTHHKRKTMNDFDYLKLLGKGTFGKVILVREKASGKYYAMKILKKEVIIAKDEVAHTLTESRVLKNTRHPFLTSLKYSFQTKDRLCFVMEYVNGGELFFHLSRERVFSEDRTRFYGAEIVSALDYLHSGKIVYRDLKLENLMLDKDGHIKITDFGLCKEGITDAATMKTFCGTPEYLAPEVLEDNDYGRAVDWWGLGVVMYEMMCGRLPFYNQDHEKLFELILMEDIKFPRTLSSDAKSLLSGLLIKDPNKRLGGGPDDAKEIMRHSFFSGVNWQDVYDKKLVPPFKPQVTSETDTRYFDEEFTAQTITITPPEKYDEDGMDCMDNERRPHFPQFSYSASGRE

`O=C(/C=C/c1nc2ccccc2[nH]1)c1c(-c2ccccc2)c2ccccc2[nH]c1=O` and `O=C(/C=C/c1nc2cc(Br)ccc2[nH]1)c1c(-c2ccccc2)c2cc(Cl)ccc2[nH]c1=O` fall in the same range of IC50: 1.64 to 44.5 µM for the first, 1.64 to 44.5 µM for the second.

Work on `O=C(/C=C/c1nc2cc(F)c(F)cc2[nH]1)c1c(-c2ccc(F)c(F)c2)c2cc(F)ccc2[nH]c1=O` yielded an IC50 of 1.64 to 44.5 µM.

Biological target: T1, Inhibitor of nuclear factor kappa-B kinase subunit alpha (Homo sapiens, UniProt O15111)
T1 sequence (O15111 whole entry): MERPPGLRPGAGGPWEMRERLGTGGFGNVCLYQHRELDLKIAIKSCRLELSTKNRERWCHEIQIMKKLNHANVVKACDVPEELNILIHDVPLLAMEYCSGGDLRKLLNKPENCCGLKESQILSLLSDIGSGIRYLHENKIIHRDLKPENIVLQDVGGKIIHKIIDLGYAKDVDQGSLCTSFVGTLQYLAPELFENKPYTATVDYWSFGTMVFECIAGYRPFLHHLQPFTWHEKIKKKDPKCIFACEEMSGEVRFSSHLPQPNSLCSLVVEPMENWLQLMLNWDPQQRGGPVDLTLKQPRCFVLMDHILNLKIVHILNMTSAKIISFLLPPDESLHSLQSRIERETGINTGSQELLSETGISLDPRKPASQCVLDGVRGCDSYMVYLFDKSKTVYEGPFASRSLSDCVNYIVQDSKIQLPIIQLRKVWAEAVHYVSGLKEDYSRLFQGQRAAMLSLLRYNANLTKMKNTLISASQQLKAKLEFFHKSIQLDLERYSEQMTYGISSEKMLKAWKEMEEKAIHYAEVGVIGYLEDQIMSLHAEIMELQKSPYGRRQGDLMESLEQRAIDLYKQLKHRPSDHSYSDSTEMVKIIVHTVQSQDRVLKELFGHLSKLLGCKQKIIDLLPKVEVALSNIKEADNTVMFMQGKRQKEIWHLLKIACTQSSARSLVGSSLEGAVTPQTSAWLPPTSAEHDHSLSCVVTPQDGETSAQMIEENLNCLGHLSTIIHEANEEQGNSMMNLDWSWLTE
Assay: Inhibition of IKKalpha (unknown origin)
Settings: not given

`O=C(/C=C/c1nc2ccccc2[nH]1)c1c(-c2ccccc2)c2ccccc2[nH]c1=O` and `O=C(/C=C/c1nc2cc(Br)ccc2[nH]1)c1c(-c2ccccc2)c2cc(Cl)ccc2[nH]c1=O` fall in the same range of IC50: 1.64 to 44.5 µM for the first, 1.64 to 44.5 µM for the second.

`O=C(/C=C/c1nc2cc(F)c(F)cc2[nH]1)c1c(-c2ccc(F)c(F)c2)c2cc(F)ccc2[nH]c1=O` gave an IC50 of 1.64 to 44.5 µM.

Biological target: T2, Inhibitor of nuclear factor kappa-B kinase subunit beta (Homo sapiens, UniProt O14920)
T2 sequence (O14920 whole entry): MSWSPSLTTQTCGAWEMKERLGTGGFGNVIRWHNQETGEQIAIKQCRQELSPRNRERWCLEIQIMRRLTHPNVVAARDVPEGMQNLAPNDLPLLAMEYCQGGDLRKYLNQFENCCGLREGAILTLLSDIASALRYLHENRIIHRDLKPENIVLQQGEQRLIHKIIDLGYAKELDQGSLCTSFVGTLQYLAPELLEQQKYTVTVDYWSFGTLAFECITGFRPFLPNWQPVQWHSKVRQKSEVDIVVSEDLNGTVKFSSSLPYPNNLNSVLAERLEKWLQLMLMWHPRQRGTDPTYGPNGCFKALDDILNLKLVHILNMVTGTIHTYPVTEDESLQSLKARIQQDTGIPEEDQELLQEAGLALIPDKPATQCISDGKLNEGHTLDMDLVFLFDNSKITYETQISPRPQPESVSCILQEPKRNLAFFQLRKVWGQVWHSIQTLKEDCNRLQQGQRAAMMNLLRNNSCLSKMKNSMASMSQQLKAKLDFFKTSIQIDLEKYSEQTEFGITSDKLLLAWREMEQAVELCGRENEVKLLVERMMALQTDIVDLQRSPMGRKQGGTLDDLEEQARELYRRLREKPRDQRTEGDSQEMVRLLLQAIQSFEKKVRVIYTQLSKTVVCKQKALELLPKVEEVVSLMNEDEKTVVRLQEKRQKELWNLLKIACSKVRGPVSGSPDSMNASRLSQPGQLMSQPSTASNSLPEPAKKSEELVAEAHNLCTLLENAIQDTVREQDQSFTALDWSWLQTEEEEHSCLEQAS
Assay: Inhibition of IKKbeta (unknown origin)
Settings: not given

`O=C(/C=C/c1nc2ccccc2[nH]1)c1c(-c2ccccc2)c2ccccc2[nH]c1=O` and `O=C(/C=C/c1nc2cc(Br)ccc2[nH]1)c1c(-c2ccccc2)c2cc(Cl)ccc2[nH]c1=O` fall in the same range of IC50: 1.64 to 44.5 µM for the first, 1.64 to 44.5 µM for the second.

`O=C(/C=C/c1nc2cc(F)c(F)cc2[nH]1)c1c(-c2ccc(F)c(F)c2)c2cc(F)ccc2[nH]c1=O` was tested, and the IC50 was 1.64 to 44.5 µM.

System: MCF7
Assay: Cytotoxicity against human MCF7 cells assessed as reduction in cell viability after 72 hrs by MTT assay
Format: functional, cell-based
Settings: MCF7, 72 h

`O=C(O)c1cn(C2CC2)c2cc(N3CCN(C/C(=N/O)c4ccco4)CC3)c(F)cc2c1=O` and `CO/N=C(/CN1CCN(c2cc3c(cc2F)c(=O)c(C(=O)O)cn3C2CC2)CC1)c1ccco1` cannot be ordered by IC50: over 100 µM for the first, over 100 µM for the second.

`CCn1cc(C(=O)O)c(=O)c2cc(F)c(N3CCN(C/C(=N/OC)c4ccco4)CC3)cc21` and `CCn1cc(C(=O)O)c(=O)c2cc(F)c(N3CCN(C/C(=N/O)c4ccco4)CC3)cc21` cannot be ordered by IC50: over 100 µM for the first, over 100 µM for the second.

In the case of `CCn1cc(C(=O)O)c(=O)c2cc(F)c(N3CCN(C/C(=N/OCc4ccccc4)c4ccco4)CC3)cc21`, the IC50 is reported as at most 10 µM.

System: ACHN
Assay: Cytotoxicity against human ACHN cells assessed as reduction in cell viability after 72 hrs by MTT assay
Format: functional, cell-based
Settings: not given

`O=C(O)c1cn(C2CC2)c2cc(N3CCN(C/C(=N/O)c4ccco4)CC3)c(F)cc2c1=O` and `CO/N=C(/CN1CCN(c2cc3c(cc2F)c(=O)c(C(=O)O)cn3C2CC2)CC1)c1ccco1` cannot be ordered by IC50: over 100 µM for the first, over 100 µM for the second.

`CCn1cc(C(=O)O)c(=O)c2cc(F)c(N3CCN(C/C(=N/OC)c4ccco4)CC3)cc21` and `CCn1cc(C(=O)O)c(=O)c2cc(F)c(N3CCN(C/C(=N/O)c4ccco4)CC3)cc21` cannot be ordered by IC50: over 100 µM for the first, over 100 µM for the second.

`CCn1cc(C(=O)O)c(=O)c2cc(F)c(N3CCN(C/C(=N/OCc4ccccc4)c4ccco4)CC3)cc21` showed an IC50 of at most 10 µM.

System: A 172
Assay: Cytotoxicity against human A172 cells assessed as reduction in cell viability after 72 hrs by MTT assay
Format: functional, cell-based
Settings: A 172, 72 h

`O=C(O)c1cn(C2CC2)c2cc(N3CCN(C/C(=N/O)c4ccco4)CC3)c(F)cc2c1=O` and `CO/N=C(/CN1CCN(c2cc3c(cc2F)c(=O)c(C(=O)O)cn3C2CC2)CC1)c1ccco1` cannot be ordered by IC50: over 100 µM for the first, over 100 µM for the second.

`CCn1cc(C(=O)O)c(=O)c2cc(F)c(N3CCN(C/C(=N/OC)c4ccco4)CC3)cc21` and `CCn1cc(C(=O)O)c(=O)c2cc(F)c(N3CCN(C/C(=N/O)c4ccco4)CC3)cc21` cannot be ordered by IC50: over 100 µM for the first, over 100 µM for the second.

Compound `CCn1cc(C(=O)O)c(=O)c2cc(F)c(N3CCN(C/C(=N/OCc4ccccc4)c4ccco4)CC3)cc21` has an IC50 of at most 10 µM.

System: SK-MEL3
Assay: Cytotoxicity against human SK-MEL-3 cells assessed as reduction in cell viability after 72 hrs by MTT assay
Format: functional, cell-based
Settings: SK-MEL3, 72 h

`O=C(O)c1cn(C2CC2)c2cc(N3CCN(C/C(=N/O)c4ccco4)CC3)c(F)cc2c1=O` and `CO/N=C(/CN1CCN(c2cc3c(cc2F)c(=O)c(C(=O)O)cn3C2CC2)CC1)c1ccco1` cannot be ordered by IC50: over 100 µM for the first, over 100 µM for the second.

`CCn1cc(C(=O)O)c(=O)c2cc(F)c(N3CCN(C/C(=N/OC)c4ccco4)CC3)cc21` and `CCn1cc(C(=O)O)c(=O)c2cc(F)c(N3CCN(C/C(=N/O)c4ccco4)CC3)cc21` cannot be ordered by IC50: over 100 µM for the first, over 100 µM for the second.

For `CCn1cc(C(=O)O)c(=O)c2cc(F)c(N3CCN(C/C(=N/OCc4ccccc4)c4ccco4)CC3)cc21`, the IC50 was at most 10 µM.

System: KB
Assay: Cytotoxicity against human KB cells assessed as reduction in cell viability after 72 hrs by MTT assay
Format: functional, cell-based
Settings: not given

`O=C(O)c1cn(C2CC2)c2cc(N3CCN(C/C(=N/O)c4ccco4)CC3)c(F)cc2c1=O` and `CO/N=C(/CN1CCN(c2cc3c(cc2F)c(=O)c(C(=O)O)cn3C2CC2)CC1)c1ccco1` cannot be ordered by IC50: over 100 µM for the first, over 100 µM for the second.

`CCn1cc(C(=O)O)c(=O)c2cc(F)c(N3CCN(C/C(=N/OC)c4ccco4)CC3)cc21` and `CCn1cc(C(=O)O)c(=O)c2cc(F)c(N3CCN(C/C(=N/O)c4ccco4)CC3)cc21` cannot be ordered by IC50: over 100 µM for the first, over 100 µM for the second.

For `CCn1cc(C(=O)O)c(=O)c2cc(F)c(N3CCN(C/C(=N/OCc4ccccc4)c4ccco4)CC3)cc21`, the IC50 was at most 10 µM.

System: A549
Assay: Cytotoxicity against human A549 cells assessed as reduction in cell viability after 72 hrs by MTT assay
Format: functional, cell-based
Settings: A549, 72 h

`O=C(O)c1cn(C2CC2)c2cc(N3CCN(C/C(=N/O)c4ccco4)CC3)c(F)cc2c1=O` and `CO/N=C(/CN1CCN(c2cc3c(cc2F)c(=O)c(C(=O)O)cn3C2CC2)CC1)c1ccco1` cannot be ordered by IC50: over 100 µM for the first, over 100 µM for the second.

`CCn1cc(C(=O)O)c(=O)c2cc(F)c(N3CCN(C/C(=N/OC)c4ccco4)CC3)cc21` and `CCn1cc(C(=O)O)c(=O)c2cc(F)c(N3CCN(C/C(=N/O)c4ccco4)CC3)cc21` cannot be ordered by IC50: over 100 µM for the first, over 100 µM for the second.

For `CCn1cc(C(=O)O)c(=O)c2cc(F)c(N3CCN(C/C(=N/OCc4ccccc4)c4ccco4)CC3)cc21`, the IC50 was at most 10 µM.

System: A2780
Assay: Cytotoxicity against human A2780 cells assessed as reduction in cell viability after 72 hrs by MTT assay
Format: functional, cell-based
Settings: A2780, 72 h

`O=C(O)c1cn(C2CC2)c2cc(N3CCN(C/C(=N/O)c4ccco4)CC3)c(F)cc2c1=O` and `CO/N=C(/CN1CCN(c2cc3c(cc2F)c(=O)c(C(=O)O)cn3C2CC2)CC1)c1ccco1` cannot be ordered by IC50: over 100 µM for the first, over 100 µM for the second.

`CCn1cc(C(=O)O)c(=O)c2cc(F)c(N3CCN(C/C(=N/OC)c4ccco4)CC3)cc21` and `CCn1cc(C(=O)O)c(=O)c2cc(F)c(N3CCN(C/C(=N/O)c4ccco4)CC3)cc21` cannot be ordered by IC50: over 100 µM for the first, over 100 µM for the second.

In the case of `CCn1cc(C(=O)O)c(=O)c2cc(F)c(N3CCN(C/C(=N/OCc4ccccc4)c4ccco4)CC3)cc21`, the IC50 is reported as at most 10 µM.
